Read-outs that look alike come from different tables or passages of the source.
Tests used:
[1] = test system: RPE-Neo or RPE-MYC or RPE-MYC expressing an EGFP-Histone 2B fusion protein; assay: Phenotypic screening assay: arrest in mitosis, change in DNA content (polyploidy), cell death; format: cell-based; settings: 20 nM to 20 μM, 24, 48 or 72 hours
Description: (§1) Human cancer cell lines were obtained from ATCC and cultured in DMEM (Gibco, Cleveland, TN, USA) supplemented with 5% fetal bovine serum (Gibco), penicillin (100 U/mL)-streptomycin (100 μg/mL) (Gibco, Cat. No. 15140-122), 2 mM L-glutamine (Gibco, 200 mM solution, Cat. No. 25030081), and 1 mM sodium pyruvate (Gibco, 100 mM solution, Cat. No. 11360070) at 37° C. in a humidified incubator that was maintained at 5% CO2.
Screening was conducted as described before (Li et al. 2019). Briefly, RPE-Neo or RPE-MYC or RPE-MYC expressing an EGFP-Histone 2B fusion protein were passaged as batches of 96-well plates, 18-24 hours before exposure to the chemical compounds of the present disclosure at concentrations from 20 nM to 20 μM. At 24, 48 or 72 hours after initiation of treatment, cells were analyzed for either an arrest in mitosis or a change in DNA content by GE IN-Cell Analyzer 2000. MTT assays of cellular proliferation were performed as previously described (Li et al. 2019).
(§2) As set forth in table 2 below, an values of greater than or equal to 1 nM and less than or equal to 1.0 μM is marked “A”; a value greater than 1.00 μM and less than or equal to 10.0 μM is marked “B”; a value greater than 10.0 μM and less than or equal to 30.0 μM is marked “C”; and a value greater than 30.0 μM and less than 1000 μM is marked “D.”

RPE-Neo or RPE-MYC cells = assay: MTT assay of cellular proliferation (proliferative arrest); format: cell-based; settings: for minimal effective concentration: read-out: Min. Effective conc. for Proliferative arrest (>50%)
Description: as §1
Screening was conducted as described before (Li et al. 2019). Briefly, RPE-Neo or RPE-MYC or RPE-MYC expressing an EGFP-Histone 2B fusion protein were passaged as batches of 96-well plates, 18-24 hours before exposure to the chemical compounds of the present disclosure at concentrations from 20 nM to 20 μM. At 24, 48 or 72 hours after initiation of treatment, cells were analyzed for either an arrest in mitosis or a change in DNA content by GE IN-Cell Analyzer 2000. MTT assays of cellular proliferation were performed as previously described (Li et al. 2019). […]
as §2

[2] = read-out: Min. Effective conc. for Along with Cell Death
[3] = ≥5%, read-out: Min. Effective conc. for Mitotic Arrest (≥5%)
[4] = ≥5%, read-out: Min. Effective conc. for Polyploidy (≥5%)

Structure (SMILES) | minimal effective concentration [1, 2] | minimal effective concentration [1, 3] | minimal effective concentration [1, 4] | minimal effective concentration (RPE-Neo or RPE-MYC cells) | Min. Effective conc. for Along with Cell Death [1] | Min. Effective conc. for Mitotic Arrest (≥5%) ([1]; ≥5%) | Min. Effective conc. for Polyploidy (≥5%) ([1]; ≥5%) | Min. Effective conc. for Proliferative arrest (>50%) (RPE-Neo or RPE-MYC cells; >50%)
Cc1ccc(CN2C(=O)CC(c3nnc(C4CC4)o3)=C(Br)c3scc(C)c32)cc1F [Compound 1, 8-Bromo-7-(5-cyclopropyl-1,3,4-oxadiazol-2-yl)-4-(3-fluoro-4-methylbenzyl)-3-methyl-4,6-dihydro-5H-thieno[3,2-b]azepin-5-one] | 0.001 to 1 µM | 0.001 to 1 µM | 0.001 to 1 µM | 0.001 to 1 µM |  |  |  | 
Cc1ccc(CN2C(=O)CC(c3nnc(C4CC4)o3)=C(Br)c3ccc(OCCOCCOCCOCCOc4ccc5c(c4)N(Cc4ccc(C)c(F)c4)C(=O)CC(c4nnc(C6CC6)o4)=C5Br)cc32)cc1F [Compound 2, 8,8′-((((Oxybis(ethane-2,1-diyl))bis(oxy))bis(ethane-2,1-diyl))bis(oxy))bis(5-bromo-4-(5-cyclopropyl-1,3,4-oxadiazol-2-yl)-1-(3-fluoro-4-methylbenzyl)-1,3-dihydro-2H-benzo[b]azepin-2-one)] | 1 to 10 µM | 1 to 10 µM | 1 to 10 µM | 1 to 10 µM |  |  |  | 
Cc1ccc(CN2C(=O)CC(c3nnc(C4CC4)o3)=C(Br)c3ccc(OCCOCCOCCOc4ccc5c(c4)N(Cc4ccc(C)c(F)c4)C(=O)CC(c4nnc(C6CC6)o4)=C5Br)cc32)cc1F [Compound 3, 8,8′-(((Ethane-1,2-diylbis(oxy))bis(ethane-2,1-diyl))bis(oxy))bis(5-bromo-4-(5-cyclopropyl-1,3,4-oxadiazol-2-yl)-1-(3-fluoro-4-methylbenzyl)-1,3-dihydro-2H-benzo[b]azepin-2-one)] | 1 to 10 µM | 1 to 10 µM | 1 to 10 µM | 1 to 10 µM |  |  |  | 
COc1ccc(CN2C(=O)CC(c3nnc(C4CC4)o3)=C(Br)c3cccc(F)c32)cc1 [Compound 4, 5-bromo-4-(5-cyclopropyl-1,3,4-oxadiazol-2-yl)-9-fluoro-1-(4-methoxybenzyl)-1,3-dihydro-2H-benzo[b]azepin-2-one] | 0.001 to 1 µM | 0.001 to 1 µM | 0.001 to 1 µM | 0.001 to 1 µM |  |  |  | 
COc1ccc(CN2C(=O)CC(c3nnc(C4CC4)o3)=C(Br)c3ccccc32)c(F)c1 [Compound 5, 5-Bromo-4-(5-cyclopropyl-1,3,4-oxadiazol-2-yl)-1-(2-fluoro-4-methoxybenzyl)-1,3-dihydro-2H-benzo[b]azepin-2-one] | 0.001 to 1 µM | 0.001 to 1 µM | 0.001 to 1 µM | 0.001 to 1 µM |  |  |  | 
CCc1ccc(CN2C(=O)CC(c3nnc(C4CC4)o3)=C(Br)c3ccccc32)cc1 [Compound 6, 5-Bromo-4-(5-cyclopropyl-1,3,4-oxadiazol-2-yl)-1-(4-ethylbenzyl)-1,3-dihydro-2H-benzo[b]azepin-2-one] | 0.001 to 1 µM | 0.001 to 1 µM | 0.001 to 1 µM | 0.001 to 1 µM |  |  |  | 
COc1ccc(CN2C(=O)CC(c3cnco3)=C(Br)c3ccccc32)cc1 [Compound 7, 5-Bromo-1-(4-methoxybenzyl)-4-(oxazol-5-yl)-1,3-dihydro-21-benzo[b]azepin-2-one] |  |  |  |  | A (greater than or equal to 1 nM and less than or equal to 1.0 μM) | A (greater than or equal to 1 nM and less than or equal to 1.0 μM) | A (greater than or equal to 1 nM and less than or equal to 1.0 μM) | A (greater than or equal to 1 nM and less than or equal to 1.0 μM)
COc1ccc(CN2C(=O)CC(c3ccon3)=C(Br)c3ccccc32)cc1 [Compound 8, 5-Bromo-4-(isoxazol-3-yl)-1-(4-methoxybenzyl)-1,3-dihydro-2H-benzo[b]azepin-2-one] | 0.001 to 1 µM | 0.001 to 1 µM | 0.001 to 1 µM | 0.001 to 1 µM |  |  |  | 
COc1ccc(CN2C(=O)CC(c3nnc(C)o3)=C(Br)c3ccccc32)cc1 [Compound 9, 5-Bromo-1-(4-methoxybenzyl)-4-(5-methyl-1,3,4-oxadiazol-2-yl)-1,3-dihydro-2H-benzo[b]azepin-2-one] | 0.001 to 1 µM | 0.001 to 1 µM | 0.001 to 1 µM | 0.001 to 1 µM |  |  |  | 
COc1ccc(CN2C(=O)CC(c3nnc(N)s3)=C(Br)c3ccccc32)cc1 [Compound 10, 4-(5-Amino-1,3,4-thiadiazol-2-yl)-5-bromo-1-(4-methoxybenzyl)-1,3-dihydro-2H-benzo[b]azepin-2-one] | 0.001 to 1 µM | 0.001 to 1 µM | 0.001 to 1 µM | 0.001 to 1 µM |  |  |  | 
COc1ccc(CN2C(=O)CC(c3ncc(C)o3)=C(Br)c3ccccc32)cc1 [Compound 11, 5-Bromo-1-(4-methoxybenzyl)-4-(5-methyloxazol-2-yl)-1,3-dihydro-2H-benzo[b]azepin-2-one] | 0.001 to 1 µM | 0.001 to 1 µM | 0.001 to 1 µM | 0.001 to 1 µM |  |  |  | 
COC(=O)C1=Cc2ccccc2N(Cc2ccc(C)c(F)c2)C(=O)C1 [Compound 12, methyl 1-(3-fluoro-4-methylbenzyl)-2-oxo-2,3-dihydro-1H-benzo[b]azepine-4-carboxylate] | 0.001 to 1 µM | 0.001 to 1 µM | 0.001 to 1 µM | 0.001 to 1 µM |  |  |  | 
Cc1ccc(CN2C(=O)CC(c3nnc(C4CC4)o3)=Cc3ccccc32)cc1F [Compound 13, 4-(5-cyclopropyl-1,3,4-oxadiazol-2-yl)-1-(3-fluoro-4-methylbenzyl)-1,3-dihydro-2H-benzo[b]azepin-2-one] | 0.001 to 1 µM | 0.001 to 1 µM | 0.001 to 1 µM | 0.001 to 1 µM |  |  |  | 
COc1ccc(CN2C(=O)CC(c3nnco3)=Cc3ccc(Br)cc32)cc1 [Compound 14, 8-bromo-1-(4-methoxybenzyl)-4-(1,3,4-oxadiazol-2-yl)-1,3-dihydro-2H-benzo[b]azepin-2-one] | 0.001 to 1 µM | 0.001 to 1 µM | 0.001 to 1 µM | 0.001 to 1 µM |  |  |  | 
COc1ccc(CN2C(=O)CC(c3nnc(C)o3)=Cc3ccc(Br)cc32)cc1 [Compound 15, 8-bromo-1-(4-methoxybenzyl)-4-(5-methyl-1,3,4-oxadiazol-2-yl)-1,3-dihydro-2H-benzo[b]azepin-2-one] | 1 to 10 µM | 1 to 10 µM | 1 to 10 µM | 1 to 10 µM |  |  |  | 
COc1ccc(CN2C(=O)CC(c3nnc(C)o3)=Cc3ccc(-c4cnn(C)c4)cc32)cc1 [Compound 16, 1-(4-methoxybenzyl)-4-(5-methyl-1,3,4-oxadiazol-2-yl)-8-(1-methyl-1H-pyrazol-4-yl)-1,3-dihydro-2H-benzo[b]azepin-2-one] | 0.001 to 1 µM | 0.001 to 1 µM | 0.001 to 1 µM | 0.001 to 1 µM |  |  |  | 
COc1ccc(CN2C(=O)CC3(c4ncc(C)o4)CC3c3ccc(Br)cc32)cc1 (stereo not shown) [Compound 17, 6-bromo-4-(4-methoxybenzyl)-1a-(5-methyloxazol-2-yl)-1a,2,4,8b-tetrahydrobenzo[b]cyclopropa[d]azepin-3(1H)-one] | 1 to 10 µM | 1 to 10 µM | 1 to 10 µM | 1 to 10 µM |  |  |  | 
Cc1cnc(C2=Cc3ccccc3N(Cc3ccc(C)c(F)c3)C(=O)C2)o1 [Compound 18, 1-(3-fluoro-4-methylbenzyl)-4-(5-methyloxazol-2-yl)-1,3-dihydro-2H-benzo[b]azepin-2-one] | 0.001 to 1 µM | 0.001 to 1 µM | 0.001 to 1 µM | 0.001 to 1 µM |  |  |  | 
Cc1cnc(C2=Cc3ccc(Br)cc3N(Cc3ccc(C)c(F)c3)C(=O)C2)o1 [Compound 19, 8-bromo-1-(3-fluoro-4-methylbenzyl)-4-(5-methyloxazol-2-yl)-1,3-dihydro-2H-benzo[b]azepin-2-one] | 0.001 to 1 µM | 0.001 to 1 µM | 0.001 to 1 µM | 0.001 to 1 µM |  |  |  | 

Source: patent US20260317340A1, “COMPOUNDS, COMPOSITIONS, AND METHODS OF TREATING DISORDERS” (Chengdu Anticancer Bioscience, Ltd., priority 2023, published 2026)
